Experimental data from ChEMBL document CHEMBL1201862, “PubChem BioAssay data set” (2004).
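Protocol summary: plate cells (96-well), add compound at 5 concentrations, incubate 48 h, interpolate endpoints linearly. At the GI50, growth is halved.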 The source made the active and inactive calls. Rule as the data show it: active = GI50 up to about 1.1 µM and inactive = higher.

Columns and labels:
Experiment in all cases: DTP human tumour cell line panel, 48 h
RPMI-8226 = tested on: RPMI-8226
COLO 205 = tested on: COLO 205
K562 = tested on: K562
BT-549 = tested on: BT-549
OVCAR-4 = tested on: OVCAR-4
KM12 = tested on: KM12
CCRF-CEM = tested on: CCRF-CEM
OVCAR-3 = tested on: OVCAR-3
SW-620 = tested on: SW-620
LOX IMVI = tested on: LOX IMVI
A498 = tested on: A498
786-0 = tested on: 786-0
SK-MEL-5 = tested on: SK-MEL-5
EKVX = tested on: EKVX
SNB-75 = tested on: SNB-75
OVCAR-8 = tested on: OVCAR-8
A549 = tested on: A549
NCI/ADR-RES = tested on: NCI/ADR-RES
SF-539 = tested on: SF-539

Measured: GI50

[N-]=[N+]=Nc1ccc2c(c1)Sc1ccccc1N2CCCCN1CCN(Cc2ccc(C(=O)c3ccc(CSCC(N)C(=O)O)cc3)cc2)CC1 (configuration not stated)
inactive: RPMI-8226 13.2 µM | COLO 205 13.6 µM | K562 12.5 µM | BT-549 18 µM | OVCAR-4 > 100 µM | KM12 1.57 µM | CCRF-CEM 14.3 µM | OVCAR-3 26.9 µM | SW-620 1.87 µM | LOX IMVI 10.6 µM | A498 18.5 µM | 786-0 12.1 µM | SK-MEL-5 13.8 µM | EKVX 52.8 µM

CN1CCN(C(=S)N(C(=O)c2ccco2)C2CCCCC2)CC1
inactive: RPMI-8226 > 100 µM | COLO 205 > 100 µM | SNB-75 50.7 µM | K562 > 100 µM | BT-549 > 100 µM | OVCAR-4 > 100 µM | OVCAR-8 > 100 µM | A549 > 100 µM | KM12 > 100 µM | CCRF-CEM > 100 µM | OVCAR-3 > 100 µM | SW-620 > 100 µM | LOX IMVI > 100 µM | 786-0 > 100 µM | SK-MEL-5 > 100 µM

O=[N+]([O-])c1ccc2c(c1)=[N+]([O-])C1(CCCCC1)[N+]=2[O-]
inactive: RPMI-8226 10.2 µM | COLO 205 12.1 µM | NCI/ADR-RES 26.2 µM | SNB-75 17.3 µM | K562 15.8 µM | SF-539 18.5 µM | OVCAR-4 11.6 µM | OVCAR-8 15.8 µM | A549 19.7 µM | KM12 20.5 µM | CCRF-CEM 3.36 µM | OVCAR-3 15.6 µM | SW-620 15.9 µM | LOX IMVI 19.9 µM | 786-0 11.5 µM | SK-MEL-5 15 µM | EKVX 15.5 µM

CC(=O)Oc1cc2c[n+](C)c3c4cc(OC(C)=O)c(OC(C)=O)cc4ccc3c2cc1OC(C)=O
inactive: RPMI-8226 > 20 µM | COLO 205 6.5 µM | NCI/ADR-RES 2.54 µM | OVCAR-8 2.73 µM | A549 12.8 µM | KM12 5.46 µM | OVCAR-3 2.24 µM | SW-620 3.31 µM | LOX IMVI 2.82 µM | A498 7.5 µM | 786-0 1.59 µM | SK-MEL-5 3.17 µM | EKVX 3.56 µM

O=C(O)c1cc2ccccc2c(/N=N/c2ccc(S(=O)(=O)Nc3ncccn3)cc2)c1O
inactive: RPMI-8226 > 100 µM | COLO 205 > 100 µM | NCI/ADR-RES > 100 µM | SNB-75 > 100 µM | K562 > 100 µM | BT-549 > 100 µM | SF-539 > 100 µM | OVCAR-4 > 100 µM | OVCAR-8 > 100 µM | A549 > 100 µM | KM12 > 100 µM | CCRF-CEM > 100 µM | OVCAR-3 > 100 µM | SW-620 > 100 µM | 786-0 > 100 µM | SK-MEL-5 > 100 µM | EKVX > 100 µM

Cc1cc(Br)cc(C)c1NC(=O)C(=O)C1C(=O)C(CC2C(=O)c3ccccc3C2=O)C(=O)CC1(C)C (configuration not stated)
inactive: COLO 205 > 100 µM | NCI/ADR-RES 86.5 µM | SNB-75 > 100 µM | BT-549 > 100 µM | SF-539 > 100 µM | OVCAR-4 39.5 µM | OVCAR-8 > 100 µM | A549 79.6 µM | KM12 > 100 µM | CCRF-CEM 41.7 µM | OVCAR-3 > 100 µM | SW-620 > 100 µM | LOX IMVI > 100 µM | 786-0 > 100 µM | SK-MEL-5 > 100 µM | EKVX 50.8 µM

O=C(NNC(=S)Nc1ccc(Cl)cc1)c1cc(-c2ccccc2)nc2ccccc12
inactive: RPMI-8226 4.08 µM | COLO 205 4.99 µM | NCI/ADR-RES 5.27 µM | SNB-75 4.9 µM | K562 4.28 µM | BT-549 4.6 µM | SF-539 3.69 µM | OVCAR-4 10.5 µM | OVCAR-8 8.11 µM | A549 7.11 µM | KM12 4.49 µM | CCRF-CEM 1.66 µM | OVCAR-3 2.66 µM | SW-620 4.91 µM | 786-0 4.71 µM | SK-MEL-5 3.73 µM

CCC(=O)COc1ccc(NC(NC(=O)C(C(F)(F)F)C(F)(F)F)(C(F)(F)F)C(F)(F)F)cc1
inactive: RPMI-8226 16.9 µM | COLO 205 21.2 µM | NCI/ADR-RES 18.9 µM | SNB-75 23.7 µM | SF-539 25.3 µM | OVCAR-4 35.6 µM | OVCAR-8 23.9 µM | A549 54.5 µM | KM12 36.2 µM | CCRF-CEM 22.3 µM | OVCAR-3 94 µM | SW-620 41.3 µM | LOX IMVI 28.6 µM | A498 60.4 µM | 786-0 23.1 µM | SK-MEL-5 42.3 µM | EKVX 49.2 µM

CC(C)=C/C=C1/CS(=O)(=O)C=C1C
inactive: RPMI-8226 > 100 µM | COLO 205 > 100 µM | NCI/ADR-RES > 100 µM | SNB-75 > 100 µM | K562 > 100 µM | SF-539 > 100 µM | OVCAR-8 > 100 µM | A549 > 100 µM | KM12 > 100 µM | CCRF-CEM > 100 µM | OVCAR-3 > 100 µM | SW-620 > 100 µM | LOX IMVI > 100 µM | A498 > 100 µM | 786-0 > 100 µM | SK-MEL-5 > 100 µM | EKVX > 100 µM
